Among the data in patent US20260070945A1, “MACROCYCLIC IMMUNOMODULATORS” (Bristol-Myers Squibb Company, priority 2022, published 2026) are IC50 values, retold here.

Where a SMILES comes first, the peptide text is derived from it. Bridges are numbered along the chain shown (N, C = ends). [ ]: non-standard residue; d: D form. The star is where a group is joined. ξ: configuration not given here. Phe(4-COOH) = N[C@@H](Cc1ccc(C(=O)O)cc1)C(=O)O; Bip = N[C@@H](Cc1ccc(-c2ccccc2)cc1)C(=O)O; Phe(3-Me) = Cc1cccc(C[C@H](N)C(=O)O)c1; Phe(4-F) = N[C@@H](Cc1ccc(F)cc1)C(=O)O; Val(3-OH) = CC(C)(O)[C@H](N)C(=O)O; mTyr = N[C@@H](Cc1cccc(O)c1)C(=O)O; hArg = N=C(N)NCCCC[C@H](N)C(=O)O; hhGln = NC(=O)CCCC[C@H](N)C(=O)O; 4Pal = N[C@@H](Cc1ccncc1)C(=O)O; Cha = N[C@@H](CC1CCCCC1)C(=O)O; Cit = NC(=O)NCCC[C@H](N)C(=O)O; Thr(3ξ) = CC(O)[C@H](N)C(=O)O; Carboxymethyl = O=C(O)C*; NMeA = CN[C@@H](C)C(=O)O; Orn = NCCC[C@H](N)C(=O)O; Aun = NCCCCCCCCCCC(=O)O; Dab = NCC[C@H](N)C(=O)O; Dap = NC[C@H](N)C(=O)O; AEEA = NCCOCCOCC(=O)O

The target in one experiment is T1, PD-1/PD-L1 interaction (PE-labeled human PD-L1-Ig binding to Jurkat cell line over-expressing human PD-1) (Homo sapiens, UniProt Q15116).
T1 construct: expressed in transfected cells; host or cells: Jurkat
T1 sequence (Q15116 25-288): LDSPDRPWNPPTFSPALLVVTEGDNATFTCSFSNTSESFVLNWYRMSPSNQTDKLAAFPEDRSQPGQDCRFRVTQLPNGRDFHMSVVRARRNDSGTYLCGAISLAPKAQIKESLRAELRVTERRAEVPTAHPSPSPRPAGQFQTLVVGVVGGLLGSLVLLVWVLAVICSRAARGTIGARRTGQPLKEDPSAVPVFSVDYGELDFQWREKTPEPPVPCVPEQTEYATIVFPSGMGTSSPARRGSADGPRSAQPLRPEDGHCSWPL
Nature of the experiment: Jurkat-PD-1 Cell Binding High-Content Screening Assay (CBA). The settings on record: Jurkat-hPD-1 cells, PE-labeled PD-L1-Ig 20 nM final; read-out: Jurkat HPD1 PDL1 IC50. In outline:
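Read-out: high-content imaging of cell-bound PE fluorescence, with Hoechst 33342 nuclear counterstain after paraformaldehyde fixation. Before labeled ligand (20 nM final, 1 h) was added, compound sat on the cells for 2 h at 37 °C in DMEM/10% FCS.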
For orientation: IC50 means the concentration at which inhibition is half-maximal. On to `Cc1cccc(C[C@@H]2NC(=O)[C@H](CC(=O)O)NC(=O)[C@H](Cc3ccc(OCC(=O)O)cc3)NC(=O)[C@H](C(C)O)NC(=O)CSC[C@@H](C(=O)N[C@H](CC(N)=O)C(=O)NCCCCCCCCCCC(=O)O)NC(=O)[C@H](C(C)O)NC(=O)[C@H](C(C)C)NC(=O)[C@H](CC3CCCCC3)NC(=O)[C@H](CCN)NC(=O)[C@@H](CC(C)C)NC(=O)[C@H](C)N(C)C(=O)[C@H](CCCNC(=N)N)NC(=O)[C@H](Cc3ccc(-c4ccccc4)cc3)NC(=O)[C@H](Cc3ccc(O)cc3)NC2=O)c1` (stereo partly drawn) [Example 2338] ({CH2CO}-[Thr(3ξ)]Y(Carboxymethyl)D[Phe(3-Me)]Y[Bip]R[NMeA][dL][Dab][Cha]V[Thr(3ξ)]C[dN][Aun]-OH; thioether N-14), for which the IC50 worked out at 5.5 nM.

As for `CC(C)C[C@@H]1NC(=O)[C@H](Cc2c[nH]c3ccccc23)NC(=O)[C@H](CC(=O)O)NC(=O)[C@H](Cc2ccc(OCC(=O)O)cc2)NC(=O)[C@H](CCCCNC(=N)N)NC(=O)CSC[C@@H](C(=O)NCC(=O)NCCOCCOCC(=O)N[C@@H](CCN)C(=O)NCCCCCCCCCCC(=O)O)NC(=O)[C@H](CCCNC(N)=O)NC(=O)[C@H](C(C)C)NC(=O)[C@H](CC2CCCCC2)NC(=O)[C@H](CCN)NC(=O)[C@@H](CC(C)C)NC(=O)[C@H](C)N(C)C(=O)[C@H](C(C)C)NC(=O)[C@H](Cc2ccc(-c3ccccc3)cc2)NC1=O` [Example 2179] ({CH2CO}-[hArg]Y(Carboxymethyl)DWL[Bip]V[NMeA][dL][Dab][Cha]V[Cit]CG[AEEA][Dab][Aun]-OH; thioether N-14), the IC50 came to 11.2 nM.

Take `Cc1cccc(C[C@@H]2NC(=O)[C@H](CC(=O)O)NC(=O)[C@H](Cc3ccc(OCC(=O)O)cc3)NC(=O)[C@H]([C@@H](C)O)NC(=O)CSC[C@@H](C(=O)N[C@@H](CCN)C(=O)NCCOCCOCC(=O)NCCCCCCCCCCC(=O)O)NC(=O)[C@H](CC(N)=O)NC(=O)[C@H](C(C)C)NC(=O)[C@H](CC3CCCCC3)NC(=O)[C@H](CCN)NC(=O)[C@@H](CC(C)C)NC(=O)[C@H](C)N(C)C(=O)[C@H](Cc3ccc(OCC(=O)O)cc3)NC(=O)[C@H](Cc3ccc(-c4ccccc4)cc3)NC(=O)[C@H](Cc3ccc(OCC(=O)O)cc3)NC2=O)c1` [Example 1370] ({CH2CO}-TY(Carboxymethyl)D[Phe(3-Me)]Y(Carboxymethyl)[Bip]Y(Carboxymethyl)[NMeA][dL][Dab][Cha]VNC[Dab][AEEA][Aun]-OH; thioether N-14): the IC50 was 13.9 nM.

With `Cc1cccc(C[C@@H]2NC(=O)[C@H](CC(=O)O)NC(=O)[C@H](Cc3ccc(O)cc3)NC(=O)[C@H](Cc3ccncc3)NC(=O)CSC[C@@H](C(=O)N[C@@H](CCN)C(=O)NCCCCCCCCCCC(=O)O)NC(=O)[C@H](CCCN)NC(=O)[C@H](C(C)C)NC(=O)[C@H](CC(C)C)NC(=O)[C@H](CCN)NC(=O)[C@@H](C)NC(=O)[C@H](C)N(C)C(=O)[C@H](C(C)C)NC(=O)[C@H](Cc3ccc(-c4ccccc4)cc3)NC(=O)[C@H](CC(C)C)NC2=O)c1` [Example 2201] ({CH2CO}-[4Pal]YD[Phe(3-Me)]L[Bip]V[NMeA][dA][Dab]LV[Orn]C[Dab][Aun]-OH; thioether N-14), the IC50 stood at 15.2 nM.

For `Cc1cccc(C[C@@H]2NC(=O)[C@H](CC(=O)O)NC(=O)[C@H](Cc3ccc(OCC(=O)O)cc3)NC(=O)[C@H]([C@@H](C)O)NC(=O)CSC[C@@H](C(=O)N[C@H](CC(N)=O)C(=O)NCCOCCOCC(=O)NCCCCCCCCCCC(=O)O)NC(=O)[C@H](CCC(=O)O)NC(=O)[C@H](C(C)(C)O)NC(=O)[C@H](CC3CCCCC3)NC(=O)[C@H](CCN)NC(=O)[C@@H](CC(C)C)NC(=O)[C@H](C)N(C)C(=O)[C@H](Cc3ccc(OCC(=O)O)cc3)NC(=O)[C@H](Cc3ccc(-c4ccccc4)cc3)NC(=O)[C@H](Cc3ccc(OCC(=O)O)cc3)NC2=O)c1` [Example 1416] ({CH2CO}-TY(Carboxymethyl)D[Phe(3-Me)]Y(Carboxymethyl)[Bip]Y(Carboxymethyl)[NMeA][dL][Dab][Cha][Val(3-OH)]EC[dN][AEEA][Aun]-OH; thioether N-14), the IC50 was 311 nM.

For `CC(C)[C@@H]1NC(=O)[C@H](CC2CCCCC2)NC(=O)[C@H](CCN)NC(=O)[C@@H](C)NC(=O)[C@H](C)N(C)C(=O)[C@H](Cc2ccc(O)cc2)NC(=O)[C@H](Cc2ccc(-c3ccccc3)cc2)NC(=O)[C@H](Cc2ccc(O)cc2)NC(=O)[C@H](Cc2cccc(O)c2)NC(=O)[C@H](CC(=O)O)NC(=O)[C@H](Cc2ccc(OCC(=O)O)cc2)NC(=O)[C@H](CN)NC(=O)CSC[C@@H](C(=O)N[C@@H](CCN)C(=O)NCCCCCCCCCCC(=O)O)NC(=O)[C@H](CCCN)NC1=O` [Example 1256] ({CH2CO}-[Dap]Y(Carboxymethyl)D[mTyr]Y[Bip]Y[NMeA][dA][Dab][Cha]V[Orn]C[Dab][Aun]-OH; thioether N-14), the IC50 worked out at 502 nM.

In the case of `CC(C)C[C@@H]1NC(=O)[C@H](Cc2c[nH]c3ccccc23)NC(=O)[C@H](CC(=O)O)NC(=O)[C@H](Cc2ccc(C(=O)O)cc2)NC(=O)[C@H](Cc2ccc(OCC(=O)O)cc2)NC(=O)CSC[C@@H](C(=O)NCCOCCOCC(=O)N[C@@H](CCN)C(=O)NCCCCCCCCCCC(=O)O)NC(=O)[C@H](CCCNC(N)=O)NC(=O)[C@H](C(C)C)NC(=O)[C@H](CC2CCCCC2)NC(=O)[C@H](CCN)NC(=O)[C@@H](CC(C)C)NC(=O)[C@H](C)N(C)C(=O)[C@H](C(C)C)NC(=O)[C@H](Cc2ccc(-c3ccccc3)cc2)NC1=O` [Example 2156] ({CH2CO}-Y(Carboxymethyl)[Phe(4-COOH)]DWL[Bip]V[NMeA][dL][Dab][Cha]V[Cit]C[AEEA][Dab][Aun]-OH; thioether N-14), the IC50 came out at 16.5 nM.

Turning to `CC(C)C[C@@H]1NC(=O)[C@H](Cc2c[nH]c3ccccc23)NC(=O)[C@H](CC(=O)O)NC(=O)[C@H](Cc2ccc(OCC(=O)O)cc2)NC(=O)[C@H](Cc2ccc(OCC(=O)O)cc2)NC(=O)CSC[C@@H](C(=O)N[C@@H](CCCN)C(=O)NCCOCCOCC(=O)NCCCCCCCCCCC(=O)O)NC(=O)[C@H](CCCCC(N)=O)NC(=O)[C@H](C(C)C)NC(=O)[C@H](CC2CCCCC2)NC(=O)[C@H](CCN)NC(=O)[C@@H](CC(C)C)NC(=O)[C@H](C)N(C)C(=O)[C@H](C(C)C)NC(=O)[C@H](Cc2ccc(-c3ccccc3)cc2)NC1=O` [Example 2129] ({CH2CO}-Y(Carboxymethyl)Y(Carboxymethyl)DWL[Bip]V[NMeA][dL][Dab][Cha]V[hhGln]C[Orn][AEEA][Aun]-OH; thioether N-14), the IC50 was 11.2 nM.

Take `Cc1cccc(C[C@@H]2NC(=O)[C@H](CC(=O)O)NC(=O)[C@H](Cc3ccc(OCC(=O)O)cc3)NC(=O)[C@H](Cc3ccncc3)NC(=O)CSC[C@@H](C(=O)NCCOCCOCC(=O)NCCCCCCCCCCC(=O)O)NC(=O)[C@H](CCCN)NC(=O)[C@H](C(C)C)NC(=O)[C@H](CC3CCCCC3)NC(=O)[C@H](CCN)NC(=O)[C@@H](CC(C)C)NC(=O)[C@H](C)N(C)C(=O)[C@H](Cc3ccc(O)cc3)NC(=O)[C@H](Cc3ccc(-c4ccccc4)cc3)NC(=O)[C@H](CC(C)C)NC2=O)c1` [Example 2218] ({CH2CO}-[4Pal]Y(Carboxymethyl)D[Phe(3-Me)]L[Bip]Y[NMeA][dL][Dab][Cha]V[Orn]C[AEEA][Aun]-OH; thioether N-14): the IC50 is 33.3 nM.

The same experiment, now with this note: PE-labeled PD-L1-Ig 20 nM final, Jurkat-hPD-1 cells; read-out: Jurkat HPD1 PDL1 IC50.
For the compound `Cc1cccc(C[C@@H]2NC(=O)[C@H](CC(=O)O)NC(=O)[C@H](Cc3ccc(C(=O)O)cc3)NC(=O)[C@H](CCN)NC(=O)CSC[C@@H](C(=O)N[C@@H](CCN)C(=O)NCCOCCOCC(=O)NCCCCCCCCCCC(=O)O)NC(=O)[C@H](CCC(=O)O)NC(=O)[C@H](C(C)O)NC(=O)[C@H](CC3CCCCC3)NC(=O)[C@H](CCN)NC(=O)[C@@H](CC(C)C)NC(=O)[C@H](C)N(C)C(=O)[C@H](Cc3ccc(C(=O)O)cc3)NC(=O)[C@H](Cc3ccc(-c4ccccc4)cc3)NC(=O)[C@H](Cc3ccc(C(=O)O)cc3)NC2=O)c1` (stereo partly drawn) [Example 2552] ({CH2CO}-[Dab][Phe(4-COOH)]D[Phe(3-Me)][Phe(4-COOH)][Bip][Phe(4-COOH)][NMeA][dL][Dab][Cha][Thr(3ξ)]EC[Dab][AEEA][Aun]-OH; thioether N-14), the IC50 was 18.7 nM.

`CC(C)C[C@@H]1NC(=O)[C@H](Cc2c[nH]c3ccccc23)NC(=O)[C@H](CC(=O)O)NC(=O)[C@H](Cc2ccc(OCC(=O)O)cc2)NC(=O)[C@H](Cc2ccc(OCC(=O)O)cc2)NC(=O)CSC[C@@H](C(=O)NCCOCCOCC(=O)NCCCCCCCCCCC(=O)O)NC(=O)[C@H](CCCNC(N)=O)NC(=O)[C@H](C(C)(C)O)NC(=O)[C@H](CC2CCCCC2)NC(=O)[C@H](CCN)NC(=O)[C@@H](CC(C)C)NC(=O)[C@H](C)N(C)C(=O)[C@H](C(C)C)NC(=O)[C@H](Cc2ccc(-c3ccccc3)cc2)NC1=O` [Example 2458] ({CH2CO}-Y(Carboxymethyl)Y(Carboxymethyl)DWL[Bip]V[NMeA][dL][Dab][Cha][Val(3-OH)][Cit]C[AEEA][Aun]-OH; thioether N-14): the half-inhibitory concentration (IC50) came to 22.1 nM.

In the case of `Cc1cccc(C[C@@H]2NC(=O)[C@H](CC(=O)O)NC(=O)[C@H](Cc3ccc(OCC(=O)O)cc3)NC(=O)[C@H](Cc3ccc(F)cc3)NC(=O)CSC[C@@H](C(=O)N[C@@H](CCN)C(=O)NCCOCCOCC(=O)NCCCCCCCCCCC(=O)O)NC(=O)[C@H](CC(=O)O)NC(=O)[C@H](C(C)C)NC(=O)[C@H](CC3CCCCC3)NC(=O)[C@H](CCN)NC(=O)[C@@H](CC(C)C)NC(=O)[C@H](C)N(C)C(=O)[C@H](Cc3ccc(OCC(=O)O)cc3)NC(=O)[C@H](Cc3ccc(-c4ccccc4)cc3)NC(=O)[C@H](Cc3ccc(OCC(=O)O)cc3)NC2=O)c1` [Example 2559] ({CH2CO}-[Phe(4-F)]Y(Carboxymethyl)D[Phe(3-Me)]Y(Carboxymethyl)[Bip]Y(Carboxymethyl)[NMeA][dL][Dab][Cha]VDC[Dab][AEEA][Aun]-OH; thioether N-14), the IC50 was 28.6 nM.
